Where two headings read alike, the source gives them in different places.
System: Plutella xylostella
Assay: Insecticidal activity against Plutella xylostella (Airbrush spray on cabbage leaf discs)
Type: in vivo
Conditions: for Fatality rate (%, 3 d after administration) 5 mg/L: Table 72, 5 mg/L; for Fatality rate (%, 3 d after administration) 0.5 mg/L: Table 73, 0.5 mg/L
Protocol: The compound to be tested was dissolved by a mixed solvent of acetone/methanol (1:1), and then diluted by water containing 0.1% (wt) Tween 80 to the required concentration.
An Airbrush spray method was adopted for the determination of the activity, with armyworm, Plutella xylostella and Chilo suppressalis as targets.
Determination method: cabbage blades were punched into 2 cm (diameter) leaf discs by a puncher; with the pressure of Airbrush spray being 10 psi (about 0.7 kg/cm^2), both sides of each leaf disc were sprayed with the amount of 0.5 ml. After dried in the shade, each leaf disc was inoculated with 10 3rd-instar larvaes, 3 repeats for each leaf disc. And then, the treated leaf discs were put into an observation room (25° C., relative humidity: 60-70%) for cultivation; the number of the survivals was surveyed 1 d, 2 d and 3 d after administration, and then the death rate was calculated.

[1] = Plutella xylostella, foliar, 72 h, Table 71, 10 mg/L, 3 d after administration, read-out: Fatality rate (%, 3 d after administration) 10 mg/L

COCN(C(=O)c1ccccc1)c1cccc(C(=O)N(C)c2c(C)cc(C(F)(C(F)(F)F)C(F)(F)F)cc2C)c1 [CK1, reference compound]
pest or weed control at 10 µg/mL [1]: 0%

COCN(C(=O)c1ccccc1)c1cccc(C(=O)Nc2c(C)cc(C(F)(C(F)(F)F)C(F)(F)F)cc2C)c1 [CK2, reference compound]
pest or weed control at 10 µg/mL [1]: 0%

Cc1cc(C(F)(C(F)(F)F)C(F)(F)F)cc(C)c1NC(=O)c1cccc(N(C#N)C(=O)c2ccccc2)c1 [CK3, reference compound]
pest or weed control at 10 µg/mL [1]: 0%

NC(=O)CCN(C(=O)c1ccccc1)c1cccc(C(=O)N(CCC(N)=O)c2c(Br)cc(C(F)(C(F)(F)F)C(F)(F)F)cc2C(F)(F)F)c1F [CK4, reference compound]
pest or weed control at 10 µg/mL (Plutella xylostella, foliar, 72 h, read-out: Fatality rate (%, 3 d after administration) 10 mg/L, Table 71, 10 mg/L, 3 d after administration): 0%

NC(=O)CCN(C(=O)c1ccccc1)c1cccc(C(=O)N(CCC(N)=O)c2c(Br)cc(C(F)(C(F)(F)F)C(F)(F)F)cc2C(F)(F)F)c1F [CK5, reference compound]
pest or weed control at 1 µg/mL (Plutella xylostella, foliar, 72 h, read-out: Fatality rate (%, 3 d after administration) 1 mg/L, Table 72, 1 mg/L, 3 d after administration): 0% | Fatality rate (%, 3 d after administration) 5 mg/L (3 d after administration): 63.5%

NC(=O)CCN(C(=O)c1ccccc1)c1cccc(C(=O)N(CCC(N)=O)c2c(Br)cc(C(F)(C(F)(F)F)C(F)(F)F)cc2C(F)(F)F)c1F [CK6, reference compound]
pest or weed control at 1 µg/mL (Plutella xylostella, foliar, 72 h, read-out: Fatality rate (%, 3 d after administration) 1 mg/L, Table 73, 1 mg/L, 3 d after administration): 68% | Fatality rate (%, 3 d after administration) 0.5 mg/L (3 d after administration): 10%

NC(=O)CCN(C(=O)c1ccccc1)c1cccc(C(=O)N(CCC(N)=O)c2c(Br)cc(C(F)(C(F)(F)F)C(F)(F)F)cc2C(F)(F)F)c1F [CK7, reference compound]
pest or weed control at 0.5 µg/mL (Plutella xylostella, foliar, 72 h, read-out: Fatality rate (%, 3 d after administration) 0.5 mg/L, Table 74, 0.5 mg/L, 3 d after administration): 70% | Fatality rate (%, 3 d after administration) 0.05 mg/L (Table 74, 0.05 mg/L, 3 d after administration): 0%

NC(=O)CCN(C(=O)c1ccccc1)c1cccc(C(=O)N(CCC(N)=O)c2c(Br)cc(C(F)(C(F)(F)F)C(F)(F)F)cc2C(F)(F)F)c1F [CK8, reference compound]
Fatality rate (%, 3 d after administration) 1 mg/L (Table 72, 1 mg/L, 3 d after administration): 0% | Fatality rate (%, 3 d after administration) 5 mg/L (3 d after administration): 65.8%

NC(=O)CCN(C(=O)c1ccccc1)c1cccc(C(=O)N(CCC(N)=O)c2c(Br)cc(C(F)(C(F)(F)F)C(F)(F)F)cc2C(F)(F)F)c1F [CK9, reference compound]
Fatality rate (%, 3 d after administration) 0.5 mg/L (3 d after administration): 0% | Fatality rate (%, 3 d after administration) 1 mg/L (Table 73, 1 mg/L, 3 d after administration): 55%

Reference: patent US11407711B2, “Benzamide compound and use thereof” (METISA BIOTECHNOLOGY CO., LTD., priority 2018, dated 2022)
